23 compounds from ChEMBL document CHEMBL1144379, “The development of monocyclic pyrazolone based cytokine synthesis inhibitors” (Bioorg Med Chem Lett, 2005) can be followed below.

In brackets after ≈: the same amount, converted by molar mass.

The test system of one data set is THP-1. Put plainly: Inhibitory activity against lipopolysaccharide stimulated TNF-alpha production in THP-1 cells (human monocytic cells). In kind it is functional, cell-based.
Data set [1] in a line: Bioavailability in rat. Conditions: in vivo. In kind it is ADME, organism-based.
Data set [2] can be described thus: Half life in rats. In kind it is ADME. To be noted: rat, in vivo.
Data set [3] is described as follows: Metabolism measured as percent loss at 4 hours in rat hepatocytes. In kind it is ADME, cell-based, Hepatocyte. To be noted: read-out: Metabolism.
Data set [4] in a line: Aqueous solubility […]. The format is physicochemical, Rattus norvegicus. To be noted: aqueous medium.
A short description of data set [5]: Inhibition of Mitogen-activated protein kinase p38 alpha.

For orientation: IC50 means the point on the concentration scale where inhibition reaches its midpoint. A lower IC50 goes with greater potency in that assay. The compound `C[C@H](Nc1nccc(-c2c(-c3ccc(F)cc3)c(=O)n(C3CCN(C)CC3)n2C)n1)c1ccccc1` returned a half-maximal inhibitory concentration (IC50) with THP-1 of 15 nM.

In the data set with THP-1, `C[C@H](Nc1nccc(-c2c(-c3ccc(F)cc3)c(=O)n(C)n2C)n1)C(C)(C)O` displayed an IC50 of 3970 nM.

In the case of `COC[C@H](C)Nc1nccc(-c2c(-c3ccc(F)cc3)c(=O)n(C3CCNCC3)n2C)n1`, the IC50 in the data set with THP-1 was 261 nM.

As a reminder, the bioavailability is the share of a dose that reaches the circulation, judged against a reference dose that is usually intravenous. What is called half-life is the time in which the quantity being followed falls by half. A low value points to rapid decline. A word on the solubility: it is the dissolved amount per volume that the medium holds. The compound `COC[C@@H](C)Nc1nccc(-c2c(-c3ccc(F)cc3)c(=O)n(C)n2C2CCNCC2)n1.O=C(O)C(F)(F)F` had an IC50 in the data set on THP-1 of 75 nM. For the same compound, the bioavailability in data set [1] turned out to be 15%. Besides, the half-life in data set [2] was 2.2 h. For the same compound, the metabolised at 4 h in data set [3] was 0%. For the same compound, in data set [4], the solubility was over 30000 µg/mL.

The compound `C[C@H](Nc1nccc(-c2c(-c3ccc(F)cc3)c(=O)n(C)n2C)n1)c1ccccc1` had an IC50 in the data set on THP-1 of 13 nM. The bioavailability in data set [1] is 32%. Besides, in data set [2], the half-life was 1.1 h. Moreover, in data set [3], the metabolised at 4 h stood at 44%. The compound also displayed a solubility in data set [4] of 123 µg/mL (≈ 305 µM).

In the case of `CC[C@H](C)Nc1nccc(-c2c(-c3ccc(F)cc3)c(=O)n(C)n2C)n1`, in the data set with THP-1, half-maximal inhibition (IC50) was put at 41 nM.

The compound `COCCn1c(-c2ccnc(N[C@@H](C)c3ccccc3)n2)c(-c2ccc(F)cc2)c(=O)n1C` gave an IC50 with THP-1 of 309 nM. In data set [3], the metabolised at 4 h was determined as 30%. The solubility in data set [4] came to 429 µg/mL (≈ 959 µM).

Compound `C[C@H](Nc1nccc(-c2c(-c3ccc(F)cc3)c(=O)n(C)n2C)n1)c1cccnc1` gave an IC50 in the data set on THP-1 of 647 nM.

The compound `C[C@H](Nc1nccc(-c2c(-c3ccc(F)cc3)c(=O)n(C)n2C)n1)c1ccncc1` had an IC50 in the data set with THP-1 of over 5000 nM.

In the data set on THP-1, `COCCn1c(-c2ccnc(N[C@H](C)COC)n2)c(-c2ccc(F)cc2)c(=O)n1C` returned an IC50 of 924 nM.

`C[C@H](Nc1nccc(-c2c(-c3ccc(F)cc3)c(=O)n(C3CCNCC3)n2C)n1)C(C)(C)O` registered an IC50 in the data set on THP-1 of 1080 nM.

`C[C@H](Nc1nccc(-c2c(-c3ccc(F)cc3)c(=O)n(C)n2C2CCNCC2)n1)c1ccccc1` yielded an IC50 in the data set on THP-1 of 155 nM.

Compound `Cn1c(-c2ccnc(Oc3ccccc3)n2)c(-c2ccc(F)cc2)c(=O)n1C` yielded an IC50 in the data set with THP-1 of 288 nM.

Regarding `COC[C@H](C)Nc1nccc(-c2c(-c3ccc(F)cc3)c(=O)n(C)n2C)n1`, the IC50 with THP-1 was 1430 nM.

For the compound `C[C@H](Nc1nccc(-c2c(-c3ccc(F)cc3)c(=O)n(C)n2C)n1)c1ccccn1`, the IC50 with THP-1 came out at 1430 nM.

In the data set with THP-1, `C[C@H](Nc1nccc(-c2c(-c3ccc(F)cc3)c(=O)n(C3CCNCC3)n2C)n1)c1ccccc1.O=C(O)C(F)(F)F` returned an IC50 of 32 nM. The same compound displayed a bioavailability in data set [1] of 17%. The same compound gave a half-life in data set [2] of 3.2 h. Besides, the metabolised at 4 h in data set [3] was found to be 32%. This compound displayed a solubility in data set [4] of 650 µg/mL.

For `COCCn1c(-c2ccnc(Oc3ccccc3)n2)c(-c2ccc(F)cc2)c(=O)n1C`, the midpoint of inhibition in the data set with THP-1, the IC50, lay at 1430 nM.

In the case of `CC(=O)N1CCC(n2c(=O)c(-c3ccc(F)cc3)c(-c3ccnc(N[C@@H](C)c4ccccc4)n3)n2C)CC1`, the half-inhibitory concentration (IC50) with THP-1 worked out at 14 nM.

On to `CCn1c(-c2ccnc(N[C@@H](C)c3ccccc3)n2)c(-c2ccc(F)cc2)c(=O)n1CC`, for which 120 nM corresponded to half-maximal inhibition in the data set with THP-1 (IC50).

`O=c1c(-c2ccc(F)cc2)c(-c2ccncc2)[nH]n1-c1ccc(Cl)cc1` had an IC50 with THP-1 of 4220 nM.

On to `Cn1c(=O)c(-c2ccc(F)cc2)c(-c2ccnc(Oc3ccccc3)n2)n1C1CCNCC1`, for which half-maximal inhibition with THP-1 (IC50) required 2650 nM.

`Cn1c(-c2ccnc(Oc3ccccc3)n2)c(-c2ccc(F)cc2)c(=O)n1C1CCNCC1` had an IC50 with THP-1 of 1810 nM.

Take `CCOCn1nc(-c2ccncc2)c(-c2ccc(F)cc2)n1`: the IC50 is 1070 nM in the data set on THP-1 and 2430 nM in data set [5].
